Assay results from patent US6380181B1, “Synthetic catechol derivatives, method for production and use thereof” (priority 1996, dated 2002).
In brackets after ≈: the same amount, converted by molar mass. Where two headings read alike, the source gives them in different places.

How the values were obtained:
Assay type in all cases: cell-based
[1] = system: Pseudomonas aeruginosa SG 137 (carbenicillin-resistant); experiment: Agar diffusion test; settings: concentration 100 μg/ml, P. aeruginosa SG 137
[2] = system: Pseudomonas aeruginosa KW 799 WT (wild type); experiment: Agar diffusion test; settings: concentration 100 μg/ml, P. aeruginosa KW799/WT
[3] = system: Pseudomonas aeruginosa KW 799/61 (penetration mutant); settings: P. aeruginosa KW799/61
[4] = system: Pseudomonas aeruginosa ATCC 27853 (wild type); experiment: Agar diffusion test; settings: concentration 100 μg/ml; P. aeruginosa ATCC 27853
[5] = system: E. coli DC2 (penetration mutant); settings: concentration 100 μg/ml
E. coli DC0 (wild type) = experiment: Agar diffusion test; settings: concentration 100 μg/ml
[6] = system: Klebsiella pneumoniae ATCC 10031; experiment: Agar diffusion test; settings: concentration 100 μg/ml
[7] = system: Klebsiella pneumoniae SG 117; experiment: Agar diffusion test; settings: concentration 100 μg/ml
[8] = system: Stenotrophomonas maltophilia GN 12873; experiment: Agar diffusion test; settings: concentration 100 μg/ml
[9] = system: Salmonella gallinarum ATCC 9184; settings: concentration 100 μg/ml, Salmonella galinarum ATCC 9184
E. coli ATCC 25922 = experiment: Microdilution test (MIC)
Description: (§1) The minimum inhibiting concentrations (MICs) were determined for the following bacterial strains: Pseudomonas aeruginosa NCTC 10701, NCTC 10662, SG 137, ATCC 27853, KW 799 WT and KW 799/61, E. coli DCO, DC2 and ATCC 25922, Serratia marcescens SG 621; Salmonella gallinarum ATCC 9184, Klebsiella pneumoniae ATCC 10031 and SG 117.

[10] = system: Pseudomonas aeruginosa ATCC 27853; experiment: Microdilution test (MIC); settings: P. aeruginosa ATCC 27853
Description: as §1

[11] = system: Pseudomonas aeruginosa NCTC 10662; experiment: Microdilution test (MIC); settings: P. aeruginosa NCTC 10662
Description: as §1

[12] = system: Stenotrophomonas maltophilia GN 12873; experiment: Microdilution test (MIC)
E. coli AB 2847 = system: E. coli AB 2847
Text: (§2) In the indicator mutants, the synthesis of the respective siderophores, e.g. pyoverdin, pyochelin, enterobactin, aerobactin or yersiniabactin, or the biosynthesis of aromatic compounds, is blocked, or there is a lack of receptors for enterobactin, pyochelin or pyoverdin and for other important components for the bacterial transport of iron (e.g. the membrane proteins Cir, Fiu, FepA and TonB). Under conditions where there is a lack of iron, these mutants therefore cannot grow or can only grow to a very slight extent. In particular, the following indicator mutants were used: Pseudomonas aeruginosa PAO 6609, K 407, 690; E. coli AB 2847, Salmonella typhimurium enb-7, TA 270; Klebsiella pneumoniae KN 4401; Yersinia enterocolitica WAH; Proteus mirabilis 12 (wild); Proteus vulgaris 718 (wild) and Morganella morganii SBK3 (wild). […] The controls used were ferrioxamine E for the Pseudomonas strains, ferrioxamine G and enterobactin for the Salmonella strains, ferrichrome for the E. coli, Klebsiella and Y. enterocol. strains, and 3,4-dihydroxybenzylidene-2,4,6-trimethylaniline for Morganella morganii (see the above literature reference by R. Reissbrodt et al.).
(§3) The annotations + and (+) relate to non-specific promotion of growth.

[13] = system: Klebsiella pneumoniae KN 4401; settings: Klebsiella KN 4401
Text: as §2, §3

[14] = system: Morganella morganii SBK3 (wild); settings: M. morg. SBK 3
Text: as §2, §3

[15] = system: Proteus mirabilis 12 (wild); settings: Proteus mir. 12
Text: as §2, §3

[16] = system: Proteus vulgaris 718 (wild); settings: Proteus vul. 718
Text: as §2, §3

[17] = system: Pseudomonas aeruginosa 690
Text: as §2, §3

[18] = system: Pseudomonas aeruginosa K 407; settings: Pseudomonas aeruginosa K407
Text: as §2, §3

[19] = system: Pseudomonas aeruginosa PAO 6609
Text: as §2, §3

[20] = system: Salmonella typhimurium TA 2700
Text: as §2, §3

[21] = system: Salmonella typhimurium enb-7
Text: as §2, §3

[22] = system: Klebsiella pneumoniae ATCC 10031; experiment: Microdilution test (MIC)
Description: as §1

[23] = system: Pseudomonas aeruginosa SG 137; experiment: Microdilution test (MIC); settings: P. aeruginosa SG 137
Description: as §1

[24] = system: Serratia marcescens SG 621; experiment: Microdilution test (MIC)
Description: as §1

[25] = system: Pseudomonas aeruginosa KW 799 WT; experiment: Microdilution test (MIC); settings: P. aeruginosa KW 799/WT
Description: as §1
(§4) With the test germs KW 799/WT and /61 of Pseudomonas and DCO and DC2 of E. coli, the effect of improved penetration capacity on the efficacy of the substances was investigated.

[26] = system: Pseudomonas aeruginosa KW 799/61; experiment: Microdilution test (MIC)
Description: as §1, §4

E. coli DC2 = experiment: microbe, parasite or virus in culture
Description: as §1, §4

CC(=O)Oc1cccc(C(=O)NCCCC[C@H](NC(=O)c2cccc(OC(C)=O)c2OC(C)=O)C(=O)N[C@@H](C(=O)N[C@@H]2C(=O)N3[C@@H]2SC(C)(C)[C@@H]3C(=O)O)c2ccccc2)c1OC(C)=O [Substance Na-31, N-[L-2,6-bis-(2,3-diacetoxybenzoylamino)-hexanoyl]-ampicillin]
inhibition spot diameter in the agar diffusion test ([1]; listed as Na-31): 31 mm
inhibition spot diameter in the agar diffusion test ([2]; listed as Na-31): 31 mm
inhibition spot diameter in the agar diffusion test ([3]; [ ] at 50 μg/ml): [38] mm
inhibition spot diameter in the agar diffusion test [4]: 24 mm
inhibition spot diameter in the agar diffusion test ([5]; listed as Na-31): 38 mm
inhibition spot diameter in the agar diffusion test (E. coli DC0 (wild type); listed as Na-31): 28 mm
inhibition spot diameter in the agar diffusion test [6]: 21 mm
inhibition spot diameter in the agar diffusion test [7]: 26 mm
inhibition spot diameter in the agar diffusion test ([8]; listed as Na-31): 29 mm
inhibition spot diameter in the agar diffusion test ([9]; listed as Na-31): 34 mm
MIC values, microdilution test (E. coli ATCC 25922; listed as Na-31): 0.2 µg/mL (≈ 0.218 µM)
MIC values, microdilution test [10]: 0.78 µg/mL (≈ 0.85 µM)
MIC values, microdilution test ([11]; listed as Na-31): 0.78 µg/mL (≈ 0.85 µM)
MIC values, microdilution test ([12]; listed as Na-31): 6.25 µg/mL (≈ 6.81 µM)

COC(=O)Oc1ccc(C=Nc2cc(N=Cc3ccc(OC(=O)OC)c(OC(=O)OC)c3)cc(C(=O)O)c2)cc1OC(=O)OC [Substance 4, 3,5-Bis-[3,4-di(methoxycarbonyloxy)-benzylideneamino]-benzoic Acid]
Growth areas of siderophore indicator strains (diameter) (E. coli AB 2847): 18 mm
Growth areas of siderophore indicator strains (diameter) [13]: 33 mm
Growth areas of siderophore indicator strains (diameter) [14]: 27 mm
Growth areas of siderophore indicator strains (diameter) [15]: 23 mm
Growth areas of siderophore indicator strains (diameter) [16]: 24 mm
Growth areas of siderophore indicator strains (diameter) [17]: 18 mm
Growth areas of siderophore indicator strains (diameter) [18]: 18 mm
Growth areas of siderophore indicator strains (diameter) [19]: 17 mm
Growth areas of siderophore indicator strains (diameter) [20]: 0 mm
Growth areas of siderophore indicator strains (diameter) [21]: 34 mm

COC(=O)Oc1ccc(C=Nc2cc(C(=O)O)ccc2O)cc1OC(=O)OC [Substance 2, 3-[3 ,4-di(Methoxycarbonyloxy)-benzylideneamino]4-hydroxybenzoic Acid]
Growth areas of siderophore indicator strains (diameter) (E. coli AB 2847): 0 mm
Growth areas of siderophore indicator strains (diameter) [13]: 35 mm
Growth areas of siderophore indicator strains (diameter) [14]: 20 mm
Growth areas of siderophore indicator strains (diameter) [15]: 16 mm
Growth areas of siderophore indicator strains (diameter) [16]: 25 mm
Growth areas of siderophore indicator strains (diameter) [17]: 17 mm
Growth areas of siderophore indicator strains (diameter) [18]: 18 mm
Growth areas of siderophore indicator strains (diameter) [19]: 17 mm
Growth areas of siderophore indicator strains (diameter) [20]: 0 mm
Growth areas of siderophore indicator strains (diameter) [21]: 30 mm

COC(=O)Oc1cccc(C(=O)N2COC[C@H]2C(=O)N[C@@H](C(=O)N[C@@H]2C(=O)N3[C@@H]2SC(C)(C)[C@@H]3C(=O)O)c2ccccc2)c1OC(=O)OC [Substance 30, (S)-N-[3-(2,3-di-(Methoxycarbonyloxy)-benzoyl]-oxazolidin-4-oyl]-ampicillin]
inhibition spot diameter in the agar diffusion test [1]: 22 mm
inhibition spot diameter in the agar diffusion test [2]: 27 mm
inhibition spot diameter in the agar diffusion test ([3]; concentration 100 μg/ml): 33 mm
inhibition spot diameter in the agar diffusion test [5]: 31 mm
inhibition spot diameter in the agar diffusion test (E. coli DC0 (wild type)): 25 mm
inhibition spot diameter in the agar diffusion test [8]: 19 mm
inhibition spot diameter in the agar diffusion test [9]: 29 mm
MIC values, microdilution test (E. coli ATCC 25922): 6.25 µg/mL (≈ 8.92 µM)
MIC values, microdilution test [22]: 6.25 µg/mL (≈ 8.92 µM)
MIC values, microdilution test [11]: 6.25 µg/mL (≈ 8.92 µM)
MIC values, microdilution test [23]: 0.4 µg/mL (≈ 0.571 µM)
MIC values, microdilution test [24]: 50 µg/mL (≈ 71.4 µM)
MIC values, microdilution test [25]: 0.78 µg/mL (≈ 1.11 µM)
MIC values, microdilution test [26]: 0.2 µg/mL (≈ 0.285 µM)
MIC values, microdilution test (E. coli DC2): 0.4 µg/mL (≈ 0.571 µM)
MIC values, microdilution test [12]: 3.12 µg/mL (≈ 4.45 µM)

CC(=O)Oc1ccc(N=Cc2cc(C(=O)O)cc(O)c2O)cc1OC(C)=O [Substance 7, 3-[(3,4-Diacetoxyphenylimino)-methyl]-4,5-dihydroxybenzoic Acid]
Growth areas of siderophore indicator strains (diameter) (E. coli AB 2847): 0 mm
Growth areas of siderophore indicator strains (diameter) [13]: 23 mm
Growth areas of siderophore indicator strains (diameter) [14]: 22 mm
Growth areas of siderophore indicator strains (diameter) [15]: 20 mm
Growth areas of siderophore indicator strains (diameter) [16]: 22 mm
Growth areas of siderophore indicator strains (diameter) [17]: 0 mm
Growth areas of siderophore indicator strains (diameter) [18]: 0 mm
Growth areas of siderophore indicator strains (diameter) [19]: 0 mm
Growth areas of siderophore indicator strains (diameter) [20]: 0 mm
Growth areas of siderophore indicator strains (diameter) [21]: 0 mm

C[C@@H](O)[C@H]1C(=O)N2C(C(=O)O)=C(S[C@@H]3CN[C@H](C(=O)N(C)C)C3)[C@H](C)[C@H]12 [Meropenem, reference compound]
MIC (E. coli ATCC 25922; Escherichia coli, ATCC25922): < 0.05 µg/mL
MIC ([22]; ATCC10031): < 0.05 µg/mL
MIC ([10]; Pseudomonas aeruginosa, ATCC27853): 0.2 µg/mL (≈ 0.522 µM)
MIC ([23]; Pseudomonas aeruginosa, SG137): 0.1 µg/mL (≈ 0.261 µM)
MIC ([12]; GN12873): > 100 µg/mL

O=C(O)c1cccc(N=Nc2ccc(O)c(O)c2)c1 [Substance 8, 3-(3,4-Dihydroxyphenylazo)benzoic Acid]
Growth areas of siderophore indicator strains (diameter) (E. coli AB 2847): 13 mm
Growth areas of siderophore indicator strains (diameter) [13]: 20 mm
Growth areas of siderophore indicator strains (diameter) [14]: 20 mm
Growth areas of siderophore indicator strains (diameter) [15]: 20 mm
Growth areas of siderophore indicator strains (diameter) [16]: 20 mm
Growth areas of siderophore indicator strains (diameter) [17]: 0 mm
Growth areas of siderophore indicator strains (diameter) [18]: 15 mm
Growth areas of siderophore indicator strains (diameter) [19]: 13 mm
Growth areas of siderophore indicator strains (diameter) [20]: 0 mm
Growth areas of siderophore indicator strains (diameter) [21]: 0 mm
